The test system of assay [1] is Alexafluor647-KRAS (DNA, G4) AGGGCGGTGTGGGAAGAGGGAAGAGGGGGAGGCAG
The assay can be described thus: fluorescence intensity titration. The note with it: 50 mM KCl, 25 mM Tris pH 6.4, 2-3% DMSO, room temperature; for KDapp: apparent.

The test system of assay [2] is shortened KRAS oligonucleotide (DNA, G4) AGGGCGGTGTGGGAATAGGGAA
The assay can be described thus: 1H NMR titration. The following applies: 50 mM KCl, 100 μM DNA.

Assay [3] relates to KRAS G4 (DNA, G4) AGGGCGGTGTGGGAAGAGGGAAGAGGGGGAGGCAG
The assay can be described thus: CD thermal melt. The note with it: 30 mM KCl; 10 mM Tris pH 6.6, 1% DMSO; 10 μM DNA, 40 μM compound.

For assay [4], the system named is 5'-biotin-TEG KRAS (DNA, G4) AGGGCGGTGTGGGAAGAGGGAAGAGGGGGAGGCAG
The assay can be described thus: SPR. The following applies: 30 mM KCl; 10 mM Tris pH 6.6, 3% DMSO, 0.01% Tween-20; no binding at 20 μM.

The test system is the same in assay [5]. The experiment in a line: SPR, steady state. The note with it: 30 mM KCl; 10 mM Tris pH 6.6, 3% DMSO, 0.01% Tween-20; apparent; text b35 prints 12.0 ± 0.5.
The test system of assay [6] is shortened KRAS oligonucleotide (DNA, G4) AGGGCGGTGTGGGAATAGGGAA
The assay can be described thus: WaterLOGSY NMR. The note with it: 50 mM KCl, 25 mM Tris-d11 pH 6.6, 10% DMSO-d6, 293 K, 100 μM compound, 1 μM DNA.

The test system of assay [7] is 5'-biotin-TEG KRAS (DNA, G4) AGGGCGGTGTGGGAAGAGGGAAGAGGGGGAGGCAG
The experiment in a line: SPR, Langmuir kinetic fit. The following applies: 30 mM KCl; 10 mM Tris pH 6.6, 3% DMSO, 0.01% Tween-20.

The test system of assay [8] is dsDNA (DNA, duplex) CAATCGGATCGAATTCGATCCGATTG
The experiment in a line: CD thermal melt. The note with it: 30 mM KCl; 10 mM Tris pH 6.6, 1% DMSO; 10 μM DNA, 40 μM compound.

Assay [9] concerns KRAS G4 (DNA, G4) AGGGCGGTGTGGGAAGAGGGAAGAGGGGGAGGCAG
The assay can be described thus: 13C NMR. The note with it: 50 mM KCl; 25 mM Tris-d11 pH 6.6, 10% DMSO-d6, 293 K.

Assay [10] concerns Alexafluor647-MYC (DNA, G4) AGGGTGGGGAGGGTGGGG
The assay can be described thus: small molecule microarray. The following applies: 100 mM KCl; PBST, room temperature, 500 nM DNA; immobilised compound.

For assay [11], the system named is Alexafluor647-AKTIP (RNA, G4) GGGGUGGGGCGGGGCGGGG
The experiment in a line: small molecule microarray. The following applies: 100 mM KCl; PBST, room temperature, 500 nM RNA; immobilised compound.

In assay [12] the test system is Alexafluor647-RB1 (DNA, G4) CGGGGGGTTTTGGGCGGC
The assay can be described thus: small molecule microarray. The following applies: 100 mM KCl; PBST, room temperature, 500 nM DNA; immobilised compound.

Assay [13] has as its system Alexafluor647-MYB (DNA, G4) GGAGGAGGAGGTCACGGAGGAGGAGGAGAAGGAGGAGGAGGA
The assay can be described thus: small molecule microarray. The note with it: 100 mM KCl; PBST, room temperature, 500 nM DNA; immobilised compound.

Assay [14] relates to Alexafluor647-BCl2 (DNA, G4) AGGGGCGGGCGCGGGAGGAAGGGGGCGGGA
The assay can be described thus: small molecule microarray. The note with it: 100 mM KCl; PBST, room temperature, 500 nM DNA; immobilised compound.

The test system of assay [15] is Alexafluor647-c-KIT (DNA, G4) AGGGAGGGCGCTGGGAGGAGGG
The experiment in a line: small molecule microarray. The note with it: 100 mM KCl; PBST, room temperature, 500 nM DNA; immobilised compound.

The test system of assay [16] is Alexafluor647-KRAS (DNA, G4) AGGGCGGTGTGGGAAGAGGGAAGAGGGGGAGGCAG
The assay can be described thus: small molecule microarray. The note with it: 100 mM KCl; PBST, room temperature, 500 nM DNA; immobilised compound.

Assay [17] relates to Alexafluor647-VEGF (DNA, G4) CGGGGCGGGCCGGGGGCGGGGT
The experiment in a line: small molecule microarray. The following applies: 100 mM KCl; PBST, room temperature, 500 nM DNA; immobilised compound.

The values below come from publication PMC5888870 (2018).

For orientation: ΔTm means the change in melting temperature against a reference sample. By KD is commonly meant the free concentration of one partner at which half of the binding sites on the other are occupied at equilibrium, for simple one-to-one binding. The low end stands for higher affinity, the high end for lower affinity.

`CC(C)NC(=N)NC(=N)Nc1ccc(Cl)cc1`: in [1] (only minimal fluorescence changes), the KDapp is over 200 µM. Besides, in assay [2] (25 mM Tris-d11 pH 6.6, 10% DMSO-d6, 293 K, weak, nonspecific), the binding entry was “weak”. The ΔTm in [3] is under 1 °C. Besides, the KD in assay [4] is over 20 µM.
`CCCCC(CC)CNC(=N)NC(=N)NCCCCCCNC(=N)NC(=N)NCC(CC)CCCC` (stereo not shown): the values for the KDapp in assay [1] (50 nM DNA) and in assay [5] were 19.3 ± 11.0 µM and 12.1 ± 0.5 µM, respectively. Moreover, the binding entry in [2] (25 mM Tris-d11 pH 6.6, 10% DMSO-d6, 293 K, moderate, nonspecific) is reported as “yes”. Further, in assay [3], the ΔTm was found to be 7.1 ± 0.6 °C.
Regarding `CN[C@H](C(=O)O)C(C)C`, the binding entry in assay [6] (internal control) is on record as “no”.
With `N=C(NCCCCCCNC(=N)NC(=N)Nc1ccc(Cl)cc1)NC(=N)Nc1ccc(Cl)cc1`, the results for the KD in assay [1] (50 nM DNA) and in assay [7] were 0.0055 ± 0.0029 mM and 1.1 ± 0.5 µM, respectively. Further, the binding entry is “yes” in assay [2] (25 mM Tris-d11 pH 6.6, 10% D2O, 5% DMSO-d6, 293 K); “yes” in assay [6]; “no” in assay [8]; “yes” in assay [9]. For the same compound, in [3], the ΔTm was 13.0 ± 0.7 °C.
Take `NCCOc1cc(C(=O)Nc2cc(OCCN)c3ccccc3n2)nc(C(=O)Nc2cc(OCCN)c3ccccc3n2)c1`: the binding result in assay [10], in assay [11], in [12], in assay [13], in assay [14] and in assay [15] was “yes” throughout. Besides, the binding result in [16] and in [17] was “yes” throughout. In assay [3], the ΔTm was 31.6 ± 2.6 °C.
